The source made the active and inactive calls. The calls are words filed in the database; no cut-off is given here.
Assays:
Rattus norvegicus [1] = test: Hypouricemic activity in Sprague-Dawley rat model of potassium oxonate-induced acute hyperuricemia assessed as decrease in serum uric acid level at 5 mg/kg, ig administered 1 hr before potassium oxonate challenge and measured after 3 hrs
Rattus norvegicus [2] = test: Hypouricemic activity in Sprague-Dawley rat model of potassium oxonate-induced acute hyperuricemia assessed as decrease in serum uric acid level at 10 mg/kg, ig administered 1 hr before potassium oxonate challenge and measured after 3 hrs

In the case of `Cc1nc(-c2ccc(OCC(C)C)c(C#N)c2)sc1C(=O)O`, the Activity (Rattus norvegicus [1]) is reported as “Active”.
For `Oc1ncnc2[nH]ncc12`, the Activity (Rattus norvegicus [2]) was “Active”.

From ChEMBL document CHEMBL4406819, “Targeting the subpocket in xanthine oxidase: Design, synthesis, and biological evaluation of 2-[4-alkoxy-3-(1H-tetrazol-1-yl) phenyl]-6-oxo-1,6-dihydropyrimidine-5-carboxylic acid derivatives” (Eur J Med Chem, 2019)
